{"source": "ChEMBL document CHEMBL2401678", "about": "“Synthesis and changes in affinity for NOP and opioid receptors of novel hexapeptides containing β(2)-tryptophan analogues” (Bioorg Med Chem Lett, 2013)", "key": {"[1]": {"molecular_target": "T1, Nociceptin receptor (Rattus norvegicus, UniProt P35370)", "T1 sequence (P35370 whole entry)": "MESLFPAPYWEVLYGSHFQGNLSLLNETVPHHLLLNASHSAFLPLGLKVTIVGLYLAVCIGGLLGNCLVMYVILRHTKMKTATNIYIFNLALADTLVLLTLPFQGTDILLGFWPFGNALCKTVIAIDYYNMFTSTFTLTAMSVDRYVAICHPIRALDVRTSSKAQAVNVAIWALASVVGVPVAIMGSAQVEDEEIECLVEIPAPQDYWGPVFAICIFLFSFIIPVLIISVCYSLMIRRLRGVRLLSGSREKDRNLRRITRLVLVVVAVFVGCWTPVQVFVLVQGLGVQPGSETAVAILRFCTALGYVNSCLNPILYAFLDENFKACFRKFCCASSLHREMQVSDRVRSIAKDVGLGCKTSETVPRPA", "experiment": "Activity at Wistar rat NOP receptor assessed as inhibition of low-frequency electrically-stimulated vas deferens contraction"}, "[2]": {"molecular_target": "Nociceptin receptor (Rattus norvegicus) (UniProt P35370)", "sequence (P35370 whole entry)": "as above", "experiment": "Activity at Wistar rat NOP receptor assessed as inhibition of low-frequency electrically-stimulated vas deferens contraction at 1 x 10^-6 M relative to control"}, "[3]": {"molecular_target": "Nociceptin receptor (Rattus norvegicus) (UniProt P35370)", "experiment": "Activity at Wistar rat NOP receptor assessed as inhibition of low-frequency electrically-stimulated vas deferens contraction at 1 x 10^-11 to 1 x 10^-5 M in presence of naloxone"}, "[4]": {"molecular_target": "Nociceptin receptor (Rattus norvegicus) (UniProt P35370)", "experiment": "Activity at Wistar rat NOP receptor assessed as inhibition of low-frequency electrically-stimulated vas deferens contraction at 1 x 10^-6 M in presence of naloxone relative to control"}, "[5]": {"molecular_target": "T1, Nociceptin receptor", "experiment": "Activity at Wistar rat NOP receptor assessed as inhibition of low-frequency electrically-stimulated vas deferens contraction in presence of naloxone"}, "[6]": {"molecular_target": "T2, Mu-type opioid receptor (Rattus norvegicus, UniProt P33535)", "T2 sequence (P33535 whole entry)": "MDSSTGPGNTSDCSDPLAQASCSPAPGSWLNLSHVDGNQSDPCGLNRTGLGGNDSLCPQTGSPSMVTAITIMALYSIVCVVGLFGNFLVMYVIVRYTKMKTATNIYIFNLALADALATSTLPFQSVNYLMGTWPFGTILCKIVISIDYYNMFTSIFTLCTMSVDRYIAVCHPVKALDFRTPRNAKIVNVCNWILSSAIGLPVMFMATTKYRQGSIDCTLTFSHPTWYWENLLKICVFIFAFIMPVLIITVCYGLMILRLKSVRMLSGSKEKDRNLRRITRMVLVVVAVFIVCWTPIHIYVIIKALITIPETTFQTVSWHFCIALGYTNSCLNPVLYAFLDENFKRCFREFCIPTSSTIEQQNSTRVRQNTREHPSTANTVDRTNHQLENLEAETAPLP", "experiment": "Activity at Wistar rat mu opioid receptor assessed as inhibition of low-frequency electrically-stimulated vas deferens contraction"}, "[7]": {"molecular_target": "T2, Mu-type opioid receptor", "experiment": "Activity at Wistar rat mu opioid receptor assessed as inhibition of low-frequency electrically-stimulated vas deferens contraction in presence of naloxone"}, "[8]": {"molecular_target": "Mu-type opioid receptor (Rattus norvegicus) (UniProt P33535)", "sequence (P33535 whole entry)": "as above", "experiment": "Activity at Wistar rat mu opioid receptor assessed as inhibition of low-frequency electrically-stimulated vas deferens contraction at 1 x 10^-5 M relative to control"}, "[9]": {"molecular_target": "Mu-type opioid receptor (Rattus norvegicus) (UniProt P33535)", "experiment": "Activity at Wistar rat mu opioid receptor assessed as inhibition of low-frequency electrically-stimulated vas deferens contraction at 1 x 10^-11 to […] in presence of naloxone"}, "[10]": {"molecular_target": "Mu-type opioid receptor (Rattus norvegicus) (UniProt P33535)", "experiment": "Activity at Wistar rat mu opioid receptor assessed as inhibition of low-frequency electrically-stimulated vas deferens contraction at 1 x 10^-6 to 1 x 10^-5 M in presence of naloxone benzoylhydrazone"}, "[11]": {"molecular_target": "Mu-type opioid receptor (Rattus norvegicus) (UniProt P33535)", "experiment": "Activity at Wistar rat mu opioid receptor assessed as inhibition of low-frequency electrically-stimulated vas deferens contraction at 1 x 10^-5 M in presence of naloxone relative to control"}, "[12]": {"molecular_target": "Mu-type opioid receptor (Rattus norvegicus) (UniProt P33535)", "experiment": "Activity at Wistar rat mu opioid receptor assessed as inhibition of low-frequency electrically-stimulated vas deferens contraction at 1 x 10^-6 to 1 x 10^-5 M"}, "[13]": {"molecular_target": "T3, Nociceptin/mu opioid receptor (Rattus norvegicus) (UniProt P33535+P35370)", "T3 sequence (P33535 whole entry, looked up)": "as the sequence (P33535 whole entry) above", "T3 sequence (P35370 whole entry, looked up)": "as the sequence (P35370 whole entry) above", "experiment": "Activity at Wistar rat NOP/mu opioid receptor assessed as inhibition of low-frequency electrically-stimulated vas deferens contraction at 1 x 10^-5 M in presence of naloxone relative to control", "type": "protein assay"}, "[14]": {"molecular_target": "T4, Nociceptin/mu opioid receptor (Rattus norvegicus, UniProt P33535+P35370)", "experiment": "Activity at Wistar rat NOP/mu opioid receptor assessed as inhibition of low-frequency electrically-stimulated vas deferens contraction in presence of naloxone", "type": "protein assay"}, "[15]": {"molecular_target": "T3, Nociceptin/mu opioid receptor (Rattus norvegicus)", "experiment": "Activity at Wistar rat NOP/mu opioid receptor assessed as inhibition of low-frequency electrically-stimulated vas deferens contraction at 1 x 10^-5 M relative to control", "type": "protein assay"}, "[16]": {"molecular_target": "T4, Nociceptin/mu opioid receptor", "experiment": "Activity at Wistar rat NOP/mu opioid receptor assessed as inhibition of low-frequency electrically-stimulated vas deferens contraction", "type": "protein assay"}, "[17]": {"molecular_target": "Mu-type opioid receptor (Rattus norvegicus) (UniProt P33535)", "experiment": "Activity at Wistar rat mu opioid receptor assessed as inhibition of low-frequency electrically-stimulated vas deferens contraction up to 1 x 10^-5 M in presence of naloxone benzoylhydrazone"}, "[18]": {"molecular_target": "Nociceptin receptor (Rattus norvegicus) (UniProt P35370)", "experiment": "Activity at Wistar rat NOP receptor assessed as inhibition of low-frequency electrically-stimulated vas deferens contraction at 1 x 10^-6 M in presence of naloxone benzoylhydrazone"}, "[19]": {"molecular_target": "T3, Nociceptin/mu opioid receptor (Rattus norvegicus)", "experiment": "Activity at Wistar rat NOP/mu opioid receptor assessed as inhibition of low-frequency electrically-stimulated vas deferens contraction at 1 x 10^-5 M in presence of naloxone benzoylhydrazone", "type": "protein assay"}, "[20]": {"molecular_target": "T3, Nociceptin/mu opioid receptor (Rattus norvegicus)", "experiment": "Activity at Wistar rat NOP/mu opioid receptor assessed as inhibition of low-frequency electrically-stimulated vas deferens contraction at 1 x 10^-5 M in presence of naloxone", "type": "protein assay"}}, "note": "Calls of active or inactive are those of the source. No cut-off for these calls is given here. *1 amine or outer side, *2 acyl side, *3 side chain or, on linkers, in order; H or OH if unused. Where a SMILES comes first, the peptide text is derived from it. [ ]: non-standard residue; d: D form. X2 = COc1ccc2[nH]cc([C@H](CN[*:1])C(=O)[*:2])c2c1; X1 = Cn1cc([C@H](CN[*:1])C(=O)[*:2])c2ccccc21", "data": [{"compound": "COc1ccc2[nH]cc([C@H](CNC(=O)[C@H](CCCNC(=N)N)NC(=O)[C@H](Cc3ccc(O)cc3)NC(=O)[C@H](Cc3ccc(O)cc3)NC(=O)[C@H](CCCNC(=N)N)NC(C)=O)C(=O)N[C@@H](CCCCN)C(N)=O)c2c1", "note": "(Ac-RYYR[X2]K-NH2)", "values": [{"measurement": "EC50", "setting": "[1]", "value": 1410, "unit": "nM"}, {"measurement": "Emax", "setting": "[2]", "value": -52, "unit": "%"}, {"measurement": "inhibition", "setting": "[3]", "value": "inactive"}, {"measurement": "Emax", "setting": "[4]", "value": -12, "unit": "%"}, {"measurement": "EC50", "setting": "[5]", "value": 1660, "unit": "nM"}]}, {"compound": "CSCC[C@H](NC(=O)[C@H](Cc1ccccc1)NC(=O)[C@H](CCCNC(=N)N)NC(C)=O)C(=O)NC[C@H](C(=O)N[C@@H](CCSC)C(=O)N[C@@H](CCCCN)C(N)=O)c1cn(C)c2ccccc12", "note": "(Ac-RFM[X1]MK-NH2)", "values": [{"measurement": "EC50", "setting": "[6]", "value": 1230, "unit": "nM"}, {"measurement": "EC50", "setting": "[7]", "value": 1620, "unit": "nM"}, {"measurement": "Emax", "setting": "[8]", "value": -50, "unit": "%"}, {"measurement": "inhibition", "setting": "[9]", "value": "inactive"}, {"measurement": "inhibition", "setting": "[10]", "value": "inactive"}, {"measurement": "Emax", "setting": "[11]", "value": -15, "unit": "%"}]}, {"compound": "COc1ccc2[nH]cc([C@H](CNC(=O)[C@H](CCSC)NC(=O)[C@H](Cc3ccccc3)NC(=O)[C@H](CCCNC(=N)N)NC(C)=O)C(=O)N[C@@H](CCSC)C(=O)N[C@@H](CCCCN)C(N)=O)c2c1", "note": "(Ac-RFM[X2]MK-NH2)", "values": [{"measurement": "inhibition", "setting": "[12]", "value": "Active"}, {"measurement": "Emax", "setting": "[13]", "value": -14, "unit": "%"}, {"measurement": "pEC50", "setting": "[14]", "value": 6.26}, {"measurement": "Emax", "setting": "[15]", "value": -34, "unit": "%"}, {"measurement": "pEC50", "setting": "[16]", "value": 5.78}, {"measurement": "inhibition", "setting": "[17]", "value": "inactive"}]}, {"compound": "Ac-RYYRWK-NH2", "values": [{"measurement": "EC50", "setting": "[1]", "value": 15.8, "unit": "nM"}, {"measurement": "inhibition", "setting": "[18]", "value": "inactive"}, {"measurement": "Emax", "setting": "[2]", "value": -36, "unit": "%"}, {"measurement": "Emax", "setting": "[4]", "value": -31, "unit": "%"}, {"measurement": "EC50", "setting": "[5]", "value": 6.17, "unit": "nM"}]}, {"compound": "C[C@H](NC(=O)CNC(=O)[C@@H](NC(=O)[C@H](Cc1ccccc1)NC(=O)CNC(=O)CNC(=O)[C@@H](N)Cc1ccccc1)[C@@H](C)O)C(=O)N[C@@H](CCCNC(=N)N)C(=O)N[C@@H](CCCCN)C(=O)N[C@@H](CO)C(=O)N[C@@H](C)C(=O)N[C@@H](CCCNC(=N)N)C(=O)N[C@@H](CCCCN)C(N)=O", "values": [{"measurement": "Emax", "setting": "[2]", "value": -73, "unit": "%"}]}, {"compound": "Ac-RFMWMK-NH2", "values": [{"measurement": "EC50", "setting": "[6]", "value": 1020, "unit": "nM"}, {"measurement": "EC50", "setting": "[7]", "value": 1150, "unit": "nM"}, {"measurement": "Emax", "setting": "[8]", "value": -52, "unit": "%"}, {"measurement": "inhibition", "setting": "[9]", "value": "inactive"}, {"measurement": "inhibition", "setting": "[10]", "value": "inactive"}, {"measurement": "Emax", "setting": "[11]", "value": -14, "unit": "%"}]}, {"compound": "CC(=O)N[C@@H](CCCNC(=N)N)C(=O)N[C@@H](Cc1ccc(O)cc1)C(=O)N[C@@H](Cc1ccc(O)cc1)C(=O)N[C@@H](CCCNC(=N)N)C(=O)NC[C@H](C(=O)N[C@@H](CCCCN)C(N)=O)c1cn(C)c2ccccc12", "note": "(Ac-RYYR[X1]K-NH2)", "values": [{"measurement": "inhibition", "setting": "[19]", "value": "inactive"}, {"measurement": "Emax", "setting": "[13]", "value": -17, "unit": "%"}, {"measurement": "pEC50", "setting": "[14]", "value": 6.21}, {"measurement": "Emax", "setting": "[15]", "value": -36, "unit": "%"}, {"measurement": "pEC50", "setting": "[16]", "value": 6.5}, {"measurement": "inhibition", "setting": "[20]", "value": "Active"}]}]}
